Reference: US6979664B1, “Composition for accelerating seed germination and plant growth” (Bios Agriculture Inc., priority 1998, dated 2005)

Assays:
Type in all cases: in vivo
[1] = system: Brassica napus; assay: seedling emergence at 15° C.
Description: (§1) Plastic pots (7.5 cm dia) were filled with 15 g of autoclaved vermiculite. Seeds of corn (Zea mays—Poaceae), bean (Phaseolus vulgaris—Fabaceae), canola (Brassica napus—Brassicaceae), cucumber (Cucumis sativus—Cucurbitaceae), cantaloupe (Cucumis melo—Cucurbitaceae), cotton (Gossypium sp.—Malvaceae), lettuce (Lactuca sativa—Asteraceae), beet (Beta vulgaris—Chenopodiaceae), and soybean (Glycine max—Fabaceae), were placed at 2.5 cm deep at the rate of 5 or 10 seeds per pot. Pots were irrigated with either 25 mL of LCO solution at different concentrations (10^−6–10^−14M) or aqueous acetonitrile or water, as controls. Acetonitrile was included as one of the controls since LCO was purified in this solvent (see Example 3), after 4 days the pots were irrigated with 10 mL of water once every two days. Each treatment had 4 replications in a randomized block design. Pots were placed on a green house bench maintained at 25±2° C. with a day/night cycle 16/8 h and relative humidity of 70%, or in a growth chamber set at 15° C. with a 16:8 day/night cycle. […] As defined above, seedling emergence has occurred when growth of the plant can be observed above the rooting medium surface. The percent emergence was calculated. The data were analyzed with Statistical Analysis System, version 6.12 (SAS institute Inc. Cary, N.C., USA).

[2] = system: Cucumis sativus; assay: seedling emergence at 15° C.
Description: as §1

[3] = system: Zea mays; assay: early growth (after seedling emergence) of Zea mays; conditions: for Leaf area / No. of roots / Root dry wt./plant / Root length / Shoot dry wt./plant / Spent seed dry wt.: 15 DAS
Description: Plastic pots (7.5 cm dia) were filled with 15 g of autoclaved vermiculite. Seeds of corn (Zea mays—Poaceae), bean (Phaseolus vulgaris—Fabaceae), canola (Brassica napus—Brassicaceae), cucumber (Cucumis sativus—Cucurbitaceae), cantaloupe (Cucumis melo—Cucurbitaceae), cotton (Gossypium sp.—Malvaceae), lettuce (Lactuca sativa—Asteraceae), beet (Beta vulgaris—Chenopodiaceae), and soybean (Glycine max—Fabaceae), were placed at 2.5 cm deep at the rate of 5 or 10 seeds per pot. […] Acetonitrile was included as one of the controls since LCO was purified in this solvent (see Example 3), after 4 days the pots were irrigated with 10 mL of water once every two days. Each treatment had 4 replications in a randomized block design. Pots were placed on a green house bench maintained at 25±2° C. with a day/night cycle 16/8 h and relative humidity of 70%, or in a growth chamber set at 15° C. with a 16:8 day/night cycle. The percent seedling emergence was recorded at 4 days after sowing (DAS). Plant height was recorded from 4 DAS to 15 DAS. Plants were harvested at 15 DAS and leaf area, root length and the number of roots per plant were recorded. The plants were then dissected and placed in paper covers and dried at 90° C. for 24 h and the dry weights of roots, shoots and the spent seeds recorded. The data were analyzed with the Statistical Analysis System version 6.12 (SAS institute Inc. Cary, N.C., USA).

Compound `CCCCCCC=CCCCCCCCCCC(=O)NC1C(OC2C(CO)OC(OC3C(CO)OC(OC4C(CO)OC(OC5C(COC6OC(C)C(O)C(O)C6OC)OC(O)C(NC(C)=O)C5O)C(NC(C)=O)C4O)C(NC(C)=O)C3O)C(NC(C)=O)C2O)OC(CO)C(O)C1O` (stereo not shown) [LCO, NodBj-V(C18:1Δ11)] has a seedling emergence ([1]; 10^−6M) of 35 bc, a seedling emergence ([1]; 10^−7M) of 32 c and a seedling emergence ([1]; 10^−8M) of 35 bc. It also gave a seedling emergence ([1]; 10^−9M) of 52 ab, a seedling emergence ([1]; 10^−10M) of 62 a and a seedling emergence ([1]; 10^−11M) of 47 bc. It also gave a seedling emergence ([1]; 10^−12M) of 45 bc, a seedling emergence ([1]; 10^−13M) of 37 bc and a seedling emergence ([1]; 10^−14M) of 30 c. For the same compound, the seedling emergence ([2]; 10^−6M) was 65 abc, the seedling emergence ([2]; 10^−7M) was 85 ab and the seedling emergence ([2]; 10^−8M) was 80 ab. For the same compound, the seedling emergence ([2]; 10^−9M) was 70 abc, the seedling emergence ([2]; 10^−10M) was 50 c and the seedling emergence ([2]; 10^−11M) was 80 ab. It also gave a seedling emergence ([2]; 10^−12M) of 80 ab, a seedling emergence ([2]; 10^−13M) of 70 abc and a seedling emergence ([2]; 10^−14M) of 70 abc. For the same compound, the “Plant height at 15 DAS” value ([3]; LCO 10−^5) was 102.9 c mm, the Leaf area ([3]; LCO 10−^5) was 11.7 cd cm^2 and the No. of roots ([3]; LCO 10−^5) was 6.8 cd. It also gave a Root dry wt./plant ([3]; LCO 10−^5) of 75.7 cd mg, a Root length ([3]; LCO 10−^5) of 137.0 cd mm and a Shoot dry wt./plant ([3]; LCO 10−^5) of 41.6 bcd mg. For the same compound, the “Spent seed dry wt.” value ([3]; LCO 10−^5) was 123.5 bc mg, the “Plant height at 15 DAS” value ([3]; LCO 10−^6) was 130.4 ab mm and the Leaf area ([3]; LCO 10−^6) was 18.2 a cm^2. It also gave a No. of roots ([3]; LCO 10−^6) of 7.66 abc, a Root dry wt./plant ([3]; LCO 10−^6) of 85.1 bc mg and a Root length ([3]; LCO 10−^6) of 150.8 bc mm. For the same compound, the Shoot dry wt./plant ([3]; LCO 10−^6) was 51.4 b mg, the “Spent seed dry wt.” value ([3]; LCO 10−^6) was 90.7 cd mg and the “Plant height at 15 DAS” value ([3]; LCO 10−^7) was 130.1 ab mm. For the same compound, the Leaf area ([3]; LCO 10−^7) was 15.7 ab cm^2, the No. of roots ([3]; LCO 10−^7) was 8.0 ab and the Root dry wt./plant ([3]; LCO 10−^7) was 96.5 ab mg. For the same compound, the Root length ([3]; LCO 10−^7) was 153.9 b mm, the Shoot dry wt./plant ([3]; LCO 10−^7) was 51.6 b mg and the “Spent seed dry wt.” value ([3]; LCO 10−^7) was 99.5 cd mg. For the same compound, the “Plant height at 15 DAS” value ([3]; LCO 10−^8) was 142.6 a mm, the Leaf area ([3]; LCO 10−^8) was 19.3 a cm^2 and the No. of roots ([3]; LCO 10−^8) was 8.4 a. It also gave a Root dry wt./plant ([3]; LCO 10−^8) of 103.4 a mg, a Root length ([3]; LCO 10−^8) of 187.0 a mm and a Shoot dry wt./plant ([3]; LCO 10−^8) of 66.2 a mg. The “Spent seed dry wt.” value ([3]; LCO 10−^8) was 76.3 mg·days, the “Plant height at 15 DAS” value ([3]; LCO 10−^9) was 134.7 ab mm and the Leaf area ([3]; LCO 10−^9) was 17.0 ab cm^2. It also gave a No. of roots ([3]; LCO 10−^9) of 7.75 abc, a Root dry wt./plant ([3]; LCO 10−^9) of 83.3 bc mg and a Root length ([3]; LCO 10−^9) of 144.4 cbd mm. For the same compound, the Shoot dry wt./plant ([3]; LCO 10−^9) was 46.8 bc mg, the “Spent seed dry wt.” value ([3]; LCO 10−^9) was 93.7 cd mg and the “Plant height at 15 DAS” value ([3]; LCO 10−^10) was 127.1 b mm. For the same compound, the Leaf area ([3]; LCO 10−^10) was 13.9 bc cm^2, the No. of roots ([3]; LCO 10−^10) was 7.95 ab and the Root dry wt./plant ([3]; LCO 10−^10) was 89.5 abc mg. The Root length ([3]; LCO 10−^10) was 149.1 bc mm, the Shoot dry wt./plant ([3]; LCO 10−^10) was 51.4 b mg and the “Spent seed dry wt.” value ([3]; LCO 10−^10) was 89.8 cd mg. For the same compound, the “Plant height at 15 DAS” value ([3]; LCO 10−^11) was 103.3 mm, the Leaf area ([3]; LCO 10−^11) was 8.51 def cm^2 and the No. of roots ([3]; LCO 10−^11) was 6.69 cd. It also gave a Root dry wt./plant ([3]; LCO 10−^11) of 74.6 cd mg, a Root length ([3]; LCO 10−^11) of 132.1 d mm and a Shoot dry wt./plant ([3]; LCO 10−^11) of 38.0 cde mg. The “Spent seed dry wt.” value ([3]; LCO 10−^11) was 115.9 bc mg, the “Plant height at 15 DAS” value ([3]; LCO 10−^12) was 98.3 c mm and the Leaf area ([3]; LCO 10−^12) was 8.0 def cm^2. It also gave a No. of roots ([3]; LCO 10−^12) of 7.25, a Root dry wt./plant ([3]; LCO 10−^12) of 84.6 bc mg and a Root length ([3]; LCO 10−^12) of 137.9 cd mm. For the same compound, the Shoot dry wt./plant ([3]; LCO 10−^12) was 40.6 bcde mg, the “Spent seed dry wt.” value ([3]; LCO 10−^12) was 105.4 od mg and the “Plant height at 15 DAS” value ([3]; LCO 10−^13) was 91.8 cd mm. The Leaf area ([3]; LCO 10−^13) was 10.4 cde cm^2, the No. of roots ([3]; LCO 10−^13) was 6.7 cd and the Root dry wt./plant ([3]; LCO 10−^13) was 85.4 bc mg. For the same compound, the Root length ([3]; LCO 10−^13) was 130.9 d mm, the Shoot dry wt./plant ([3]; LCO 10−^13) was 43.6 bc mg and the “Spent seed dry wt.” value ([3]; LCO 10−^13) was 109.6 cd mg. For the same compound, the “Plant height at 15 DAS” value ([3]; LCO 10−^14) was 99.9 c mm, the Leaf area ([3]; LCO 10−^14) was 11.2 cde cm^2 and the No. of roots ([3]; LCO 10−^14) was 7.36 abc. The Root dry wt./plant ([3]; LCO 10−^14) was 90.2 abc mg, the Root length ([3]; LCO 10−^14) was 136.8 cd mm and the Shoot dry wt./plant ([3]; LCO 10−^14) was 46.6 bc mg. For the same compound, the “Spent seed dry wt.” value ([3]; LCO 10−^14) was 102.9 cd mg, the “α-amylase activity in the treated seeds” value ([3]; corn seeds) was “dramatic increase” and the “start of seedling emergence after seeding” value ([3]; corn, control 3–4 days) was 2 to 3 days. The “LCO concentration of optimum effect” value ([3]; early growth of corn (Table 3)) was 10^−8 M.
